Experimental data reported in paper PMC4854315, “Discovery of a novel allosteric inhibitor-binding site in ERK5: comparison with the canonical kinase hinge ATP-binding site” (Acta Crystallographica. Section D, Structural Biology, 2016).

Columns and labels:
Assay in all cases: Z'-LYTE kinase panel
Assay type in all cases: biochemical
[1] = molecular target: T1, NEK4 (Homo sapiens, UniProt P51957)
T1 construct: purchased ThermoFisher (SelectScreen, Z'-LYTE)
How it was run: (§1)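 The 225-kinase standard panel was run using the Z′-LYTE protocol, and inhibition was expressed as a percentage relative to uninhibited activity at 10 µM compound.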

[2] = molecular target: T2, CSF1R (FMS) (Homo sapiens, UniProt P07333); settings: 10 µM compound, ATP Km app
T2 construct: purchased ThermoFisher (SelectScreen, Z'-LYTE)
T2 sequence (P07333 20-972): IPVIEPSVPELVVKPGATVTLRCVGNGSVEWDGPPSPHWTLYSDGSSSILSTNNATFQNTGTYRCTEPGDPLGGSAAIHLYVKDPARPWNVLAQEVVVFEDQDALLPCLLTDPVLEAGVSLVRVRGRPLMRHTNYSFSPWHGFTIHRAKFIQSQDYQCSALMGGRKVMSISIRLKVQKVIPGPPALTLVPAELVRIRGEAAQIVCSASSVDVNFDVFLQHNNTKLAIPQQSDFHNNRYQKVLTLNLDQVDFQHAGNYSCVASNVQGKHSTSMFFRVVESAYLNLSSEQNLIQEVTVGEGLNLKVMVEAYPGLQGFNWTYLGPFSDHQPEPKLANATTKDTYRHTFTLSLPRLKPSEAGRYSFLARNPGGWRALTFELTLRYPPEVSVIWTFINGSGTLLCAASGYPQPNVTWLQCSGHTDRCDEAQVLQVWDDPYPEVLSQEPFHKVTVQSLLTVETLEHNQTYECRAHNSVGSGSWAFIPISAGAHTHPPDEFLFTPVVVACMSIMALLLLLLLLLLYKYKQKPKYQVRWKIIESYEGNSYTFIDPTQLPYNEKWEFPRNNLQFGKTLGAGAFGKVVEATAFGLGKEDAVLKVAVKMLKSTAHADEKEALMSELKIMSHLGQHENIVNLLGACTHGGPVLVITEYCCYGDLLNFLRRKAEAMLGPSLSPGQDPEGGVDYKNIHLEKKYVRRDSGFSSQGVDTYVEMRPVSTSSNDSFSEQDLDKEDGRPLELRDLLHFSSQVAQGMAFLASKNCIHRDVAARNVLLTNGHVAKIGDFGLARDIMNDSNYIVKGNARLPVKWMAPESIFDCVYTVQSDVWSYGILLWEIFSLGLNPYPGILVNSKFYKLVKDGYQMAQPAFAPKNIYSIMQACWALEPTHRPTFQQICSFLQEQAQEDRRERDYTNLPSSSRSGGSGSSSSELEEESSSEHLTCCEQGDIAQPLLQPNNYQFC
How it was run: as §1

[3] = molecular target: T3, DYRK1A (Homo sapiens, UniProt Q13627)
T3 construct: purchased ThermoFisher (SelectScreen, Z'-LYTE)
How it was run: as §1

[4] = molecular target: T4, MAPK10 (JNK3) (Homo sapiens, UniProt P53779); settings: 10 µM compound; ATP 100
T4 construct: purchased ThermoFisher (SelectScreen, Z'-LYTE)
T4 sequence (P53779 whole entry): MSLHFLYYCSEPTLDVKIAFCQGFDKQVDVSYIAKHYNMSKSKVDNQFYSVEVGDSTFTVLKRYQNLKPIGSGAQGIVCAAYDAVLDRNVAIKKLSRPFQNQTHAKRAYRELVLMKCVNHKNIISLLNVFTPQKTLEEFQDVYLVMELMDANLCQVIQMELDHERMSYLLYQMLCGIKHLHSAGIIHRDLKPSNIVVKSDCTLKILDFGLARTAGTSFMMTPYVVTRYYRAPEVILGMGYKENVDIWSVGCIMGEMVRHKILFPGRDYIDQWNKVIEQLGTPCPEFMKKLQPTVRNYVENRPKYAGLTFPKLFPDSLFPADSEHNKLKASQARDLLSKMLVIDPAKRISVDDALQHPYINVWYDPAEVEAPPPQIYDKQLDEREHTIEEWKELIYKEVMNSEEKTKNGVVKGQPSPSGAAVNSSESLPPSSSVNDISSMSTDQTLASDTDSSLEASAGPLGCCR
How it was run: as §1

[5] = molecular target: T5, EPHA8 (Homo sapiens, UniProt P29322)
T5 construct: purchased ThermoFisher (SelectScreen, Z'-LYTE)
T5 sequence (P29322 28-1005): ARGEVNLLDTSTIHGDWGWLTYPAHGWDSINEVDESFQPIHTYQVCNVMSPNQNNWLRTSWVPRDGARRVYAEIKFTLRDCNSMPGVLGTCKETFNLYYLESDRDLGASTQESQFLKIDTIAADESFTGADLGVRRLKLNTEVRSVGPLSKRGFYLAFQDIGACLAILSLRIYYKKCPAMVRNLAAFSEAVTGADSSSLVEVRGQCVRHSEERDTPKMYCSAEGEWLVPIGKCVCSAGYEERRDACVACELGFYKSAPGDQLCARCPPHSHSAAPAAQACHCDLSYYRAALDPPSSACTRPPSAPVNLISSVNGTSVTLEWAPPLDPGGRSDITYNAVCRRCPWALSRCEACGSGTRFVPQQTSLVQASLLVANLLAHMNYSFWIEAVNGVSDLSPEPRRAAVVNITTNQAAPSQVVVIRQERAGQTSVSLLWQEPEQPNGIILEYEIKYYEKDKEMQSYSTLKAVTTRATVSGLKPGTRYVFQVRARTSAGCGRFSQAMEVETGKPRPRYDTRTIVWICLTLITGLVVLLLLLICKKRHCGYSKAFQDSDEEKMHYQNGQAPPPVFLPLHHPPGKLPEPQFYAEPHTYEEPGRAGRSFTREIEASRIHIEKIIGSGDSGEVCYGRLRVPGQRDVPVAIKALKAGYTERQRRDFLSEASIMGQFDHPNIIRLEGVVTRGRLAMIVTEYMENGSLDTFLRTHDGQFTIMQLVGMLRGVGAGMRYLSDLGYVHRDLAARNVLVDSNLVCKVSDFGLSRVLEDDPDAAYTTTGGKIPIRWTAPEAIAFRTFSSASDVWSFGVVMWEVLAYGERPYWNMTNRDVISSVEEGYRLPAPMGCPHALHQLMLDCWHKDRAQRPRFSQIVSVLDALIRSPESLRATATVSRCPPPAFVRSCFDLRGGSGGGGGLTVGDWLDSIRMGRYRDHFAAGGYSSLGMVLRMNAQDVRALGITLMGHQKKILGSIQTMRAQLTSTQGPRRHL
How it was run: as §1

[6] = molecular target: T6, PRKCN (PKD3) (Homo sapiens, UniProt O94806)
T6 construct: purchased ThermoFisher (SelectScreen, Z'-LYTE)
T6 sequence (O94806 1-890): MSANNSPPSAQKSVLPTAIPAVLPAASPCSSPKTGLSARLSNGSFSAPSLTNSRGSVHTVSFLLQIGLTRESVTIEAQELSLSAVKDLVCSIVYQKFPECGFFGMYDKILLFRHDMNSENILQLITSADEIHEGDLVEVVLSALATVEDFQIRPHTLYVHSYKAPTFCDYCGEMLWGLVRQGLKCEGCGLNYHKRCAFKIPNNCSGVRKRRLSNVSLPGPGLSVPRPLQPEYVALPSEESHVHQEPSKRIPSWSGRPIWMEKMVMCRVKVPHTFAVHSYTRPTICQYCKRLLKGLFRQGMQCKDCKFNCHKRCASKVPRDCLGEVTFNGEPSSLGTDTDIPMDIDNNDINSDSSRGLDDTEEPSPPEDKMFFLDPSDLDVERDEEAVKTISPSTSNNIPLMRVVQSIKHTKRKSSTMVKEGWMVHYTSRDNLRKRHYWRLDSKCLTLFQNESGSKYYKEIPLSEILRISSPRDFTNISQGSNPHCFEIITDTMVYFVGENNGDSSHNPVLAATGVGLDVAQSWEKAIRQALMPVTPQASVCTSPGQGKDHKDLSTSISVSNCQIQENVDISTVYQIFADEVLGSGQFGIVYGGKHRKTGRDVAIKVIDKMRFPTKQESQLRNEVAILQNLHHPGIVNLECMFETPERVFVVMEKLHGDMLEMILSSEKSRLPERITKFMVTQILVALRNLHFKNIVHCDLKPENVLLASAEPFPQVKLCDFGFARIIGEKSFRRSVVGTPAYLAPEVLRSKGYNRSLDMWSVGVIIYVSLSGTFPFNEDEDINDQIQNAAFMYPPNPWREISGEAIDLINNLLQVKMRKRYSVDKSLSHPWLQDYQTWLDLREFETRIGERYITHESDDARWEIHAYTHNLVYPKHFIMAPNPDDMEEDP
How it was run: as §1

[7] = molecular target: T7, FES (FPS) (Homo sapiens, UniProt P07332)
T7 construct: purchased ThermoFisher (SelectScreen, Z'-LYTE)
T7 sequence (P07332 whole entry): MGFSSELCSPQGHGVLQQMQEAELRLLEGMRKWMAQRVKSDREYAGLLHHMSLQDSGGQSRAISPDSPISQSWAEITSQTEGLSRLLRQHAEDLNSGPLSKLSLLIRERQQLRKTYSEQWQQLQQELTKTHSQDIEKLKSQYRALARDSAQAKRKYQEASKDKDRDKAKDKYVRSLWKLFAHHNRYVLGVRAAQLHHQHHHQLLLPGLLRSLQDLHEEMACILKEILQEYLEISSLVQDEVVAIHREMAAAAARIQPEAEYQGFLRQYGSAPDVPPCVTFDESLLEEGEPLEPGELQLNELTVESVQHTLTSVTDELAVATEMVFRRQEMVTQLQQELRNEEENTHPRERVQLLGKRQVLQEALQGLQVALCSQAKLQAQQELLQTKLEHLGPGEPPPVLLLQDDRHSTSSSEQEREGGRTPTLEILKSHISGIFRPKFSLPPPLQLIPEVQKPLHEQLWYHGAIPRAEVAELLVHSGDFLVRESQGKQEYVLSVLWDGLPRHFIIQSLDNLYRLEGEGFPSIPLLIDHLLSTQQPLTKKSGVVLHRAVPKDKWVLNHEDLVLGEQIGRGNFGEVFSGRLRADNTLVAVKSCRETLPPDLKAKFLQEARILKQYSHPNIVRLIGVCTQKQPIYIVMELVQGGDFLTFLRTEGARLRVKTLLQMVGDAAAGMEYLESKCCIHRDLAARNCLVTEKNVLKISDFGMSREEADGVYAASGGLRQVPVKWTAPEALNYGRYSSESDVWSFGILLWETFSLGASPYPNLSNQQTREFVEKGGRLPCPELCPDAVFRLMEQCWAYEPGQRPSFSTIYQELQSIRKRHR
How it was run: as §1

T1 sequence (P51957 whole entry): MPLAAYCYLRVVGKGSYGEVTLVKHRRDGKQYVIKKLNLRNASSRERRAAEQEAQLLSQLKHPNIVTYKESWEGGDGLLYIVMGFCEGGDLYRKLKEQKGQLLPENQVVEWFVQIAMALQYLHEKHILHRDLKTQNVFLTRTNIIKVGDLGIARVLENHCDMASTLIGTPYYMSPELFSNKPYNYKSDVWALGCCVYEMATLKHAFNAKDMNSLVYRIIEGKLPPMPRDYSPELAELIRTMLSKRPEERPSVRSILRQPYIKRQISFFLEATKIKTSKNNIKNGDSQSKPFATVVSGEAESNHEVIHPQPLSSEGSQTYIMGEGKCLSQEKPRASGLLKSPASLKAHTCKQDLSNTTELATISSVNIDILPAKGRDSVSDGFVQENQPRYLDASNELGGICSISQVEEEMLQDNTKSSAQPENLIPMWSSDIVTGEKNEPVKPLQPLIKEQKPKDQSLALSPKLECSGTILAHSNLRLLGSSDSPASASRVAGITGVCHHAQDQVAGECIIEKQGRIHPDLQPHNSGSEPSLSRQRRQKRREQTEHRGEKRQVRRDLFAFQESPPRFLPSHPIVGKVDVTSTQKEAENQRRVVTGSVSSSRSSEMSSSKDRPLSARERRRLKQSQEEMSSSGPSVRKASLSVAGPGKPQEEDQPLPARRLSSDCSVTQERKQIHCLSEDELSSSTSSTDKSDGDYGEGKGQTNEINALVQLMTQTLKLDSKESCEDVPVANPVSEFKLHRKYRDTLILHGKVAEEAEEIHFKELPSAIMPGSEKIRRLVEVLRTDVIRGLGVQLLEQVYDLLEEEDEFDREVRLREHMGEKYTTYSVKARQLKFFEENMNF

In the case of Cc1cc(Nc2nc(N)nn2C(=O)NC(C)C)ccc1Cl [Compound 5], the inhibition at 10 µM [1] is reported as 17%, the inhibition at 10 µM [2] is reported as greater than 80% and the “CSF1R (FMS) % Inhibition” value ([2]; listed as SN1109056190, 10 µM) is reported as 81%. The inhibition at 10 µM [3] was 1.48%, the inhibition at 10 µM [4] was 2.76% and the inhibition at 10 µM [5] was 0.0057%. It also gave an inhibition at 10 µM [6] of 11% and an inhibition at 10 µM [7] of 9%.

With Cc1ncc(-c2nc(Nc3ccc(C(=O)NCCN4CCCCC4)cc3)ncc2F)n1C(C)C [Compound 3] the inhibition at 10 µM [1] was 23%, the inhibition at 10 µM [2] was 94% and the inhibition at 10 µM [3] was 93%. It also gave an inhibition at 10 µM [4] of 77%, an inhibition at 10 µM [5] of 50% and an inhibition at 10 µM [6] of 87%. For the same compound, the inhibition at 10 µM [7] was 106%.

“XMD8-92 [Compound 2, reference compound]” was tested, and the “NEK4 % Inhibition” value ([1]; 10 µM compound, ATP Km app) was 2.63%, the “CSF1R (FMS) % Inhibition” value [2] was 29% and the “DYRK1A % Inhibition” value ([3]; 10 µM compound, ATP Km app) was 2%. The “MAPK10 (JNK3) % Inhibition” value [4] was 9%, the “EPHA8 % Inhibition” value ([5]; 10 µM compound, ATP Km app) was 23% and the “PRKCN (PKD3) % Inhibition” value ([6]; 10 µM compound, ATP Km app) was 18%. The “FES (FPS) % Inhibition” value ([7]; 10 µM compound, ATP Km app) was 78%.
